What was measured:
[1] = Cloud point temperature (Tcp) by transmittance while heating; format: physicochemical; details: for Tcp (° C.): polymer 3.0 mg/mL in H2O, heated 1° C./min, temperature of 50% transmittance at 500 nm, —a = no Tcp detected, fully soluble 20 to 80° C., NA^b = insoluble in H2O down to 5° C.
Protocol: (§1) FIGS. 7A and 7B show CD Spectra and heating curves of exemplary OEG-Hcy derivatives.
The incorporation of precise side-chain structural modifications, enabled systematic study of the effects of different functionalities on the properties of the materials. […] Cloud point temperatures (Tcp) were determined at 50% transmittance by monitoring solution transmittance as a function of temperature, and were used to approximate the equilibrium LCST values. Since chain length variation and polymer concentration are well known to affect Tcp values, all samples were identical in length, being prepared from the same stock of M60 (SEQ ID NO: 1).

[2] = Chain conformation / helicity by circular dichroism (CD) spectroscopy; format: physicochemical; details: 20° C.
Protocol: For M60 (SEQ ID NO: 1), no data are presented below 204 nm due to solvent absorption that prohibits data collection. 31 found to be 85% α-helical. All CD spectra recorded at 0.5 mg/ml, 20° C. Figure discloses “C^H60” as SEQ ID NO: 2.
as §1
Heating or cooling rate: 1° C./min, transmittance recorded at 500 nm. […] (label: 20° C.*).
All data were recorded in H2O at 0.5 mg/mL, 20° C. For 5b no data were recorded below 198 nm due to sulfoxide absorption.

## Poly(S-(2-acetoxy-4,7,10,13-tetraoxatetradecyl)-L-homocysteine) [Sample 3a]
[1]
  Tcp (° C.): 39 °C

## Poly(S-(2-hydroxy-4,7-dioxaoctyl)-L-homocysteine sulfoxide) [Sample 5a]
[2]; CD in water, 0.5 mg/mL
  chain conformation: disordered conformation
[1]
  Tcp / LCST in water, present or not: neither polymer has a LCST
Solubility in water
  water solubility (in words): good solubility

## Poly(S-(3-(2-hydroxyethoxy)-2-hydroxypropyl)-L-homocysteine) [Sample 2a]
Solubility in water
  water solubility (in words): fully water soluble

## Poly(S-(3-(2-methoxyethoxy)-2-hydroxypropyl)-DL-homocysteine) [rac-2b]
Solubility in water
  water solubility (in words): fully water soluble

## Poly(S-(2-hydroxy-4,7-dioxaoctyl)-L-homocysteine sulfone) [Sample 5b]
[2]; CD in water, 0.5 mg/mL
  chain conformation: α-helical conformation
  α-helical (%): 86%
[1]
  Tcp / LCST in water, present or not: neither polymer has a LCST
Solubility in water
  water solubility (in words): good solubility

## Poly(S-(2-(((2-methoxyethoxy)carbonyl)oxy)-4,7,10,13-tetraoxatetradecyl)-L-homocysteine) [Sample 3b]
[1]
  Tcp (° C.): 41 °C

## Poly(S-(3-(2-acetoxyethoxy)-2-hydroxypropyl)-L-homocysteine) [Sample 2c]
Solubility in water
  water solubility (in words): water insoluble

## Poly(L-methionine)60 [Sample M60, reference compound]
[2]; CD in THF, 0.5 mg/ml
  chain conformation: helical
Solubility in water
  water solubility (in words): water-insoluble
